From patent publication US8076487B2, “Pyridone derivative and herbicide” (Kumiai Chemical Industry Co., Ltd., priority 2006, dated 2011)

Tests used:
Assay type in all cases: in vivo
[1] = tested on: slender amaranth (Amaranthus viridis L.); test: Test Example 3: herbicidal effect by application to upland field (foliage treatment); conditions: 14th day after application; for herbicidal effect, Slender Amaranth: foliage treatment, 1,000 g active ingredient per 1 hectare, greenhouse; for herbicidal effect (index), Slender Amaranth: foliage treatment, plants grown two weeks, 1,000 g active ingredient per hectare
In short: (§1)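 Foliage treatment, greenhouse: 2-week-old plants in field soil; wettable powder in water sprayed over the top at 1,000 g a.i./ha (1,000 L/ha); rating on day 14 post-application.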

[2] = tested on: barnyardgrass (Echinochloa crus-galli (L.) P. Beauv. var. crus-galli); test: as above; conditions: 14th day after application; for herbicidal effect, Barnyardgrass: foliage treatment, 1,000 g active ingredient per 1 hectare, greenhouse; for herbicidal effect (index), Barnyardgrass: foliage treatment, plants grown two weeks, 1,000 g active ingredient per hectare
In short: as §1

[3] = tested on: green foxtail (Setaria viridis (L.) P. Beauv.); test: as above; conditions: 14th day after application; for herbicidal effect, Green Foxtail: foliage treatment, 1,000 g active ingredient per 1 hectare, greenhouse; for herbicidal effect (index), Green Foxtail: foliage treatment, plants grown two weeks, 1,000 g active ingredient per hectare
In short: as §1

[4] = tested on: velvetleaf (Abutilon theophrasti medicus); test: as above; conditions: 14th day after application; for herbicidal effect, Velvetleaf: foliage treatment, 1,000 g active ingredient per 1 hectare, greenhouse; for herbicidal effect (index), Velvetleaf: foliage treatment, plants grown two weeks, 1,000 g active ingredient per hectare
In short: as §1

[5] = tested on: early watergrass (Echinochloa oryzicola Vasing); test: Test Example 1: herbicidal effect by soil application to paddy field; conditions: paddy field soil application; active ingredient 1,000 g per 1 hectare; wettable powder added dropwise to water surface the day after sowing; examined on the 21st day after application
In short: (§2)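 Under greenhouse conditions, seeds sown on puddled paddy soil in 100 cm2 pots under 3 cm of standing water received the test compound; injury was assessed with a standard scoring scheme three weeks (day 21) after treatment.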

[6] = tested on: heartshape false pickerelweed (Monochoria vaginalis (Burm.f.) C.Presl); test: as above; conditions: paddy field soil application; active ingredient 1,000 g per 1 hectare; wettable powder added dropwise to water surface the day after sowing; examined on the 21st day after application
In short: as §2

[7] = tested on: Japanese bulrush (Scirpus juncoides Roxb.); test: as above; conditions: paddy field soil application; active ingredient 1,000 g per 1 hectare; wettable powder added dropwise to water surface the day after sowing; examined on the 21st day after application
In short: as §2

[8] = tested on: slender amaranth (Amaranthus viridis L.); test: Test Example 2: herbicidal effect by soil application to upland field; conditions: soil surface spray, upland field soil, 1,000 g active ingredient per hectare, 21st day after application
In short: (§3)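 Seeds were sown in field soil, covered, and the soil surface sprayed with a water-diluted wettable powder at 1,000 g active ingredient per hectare in 1,000 L/ha. Plants grew in a greenhouse, and herbicidal effect was rated against a standard scale 21 days after application.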

[9] = tested on: barnyardgrass (Echinochloa crus-galli (L.) P. Beauv. var. crus-galli); test: as above; conditions: soil surface spray, upland field soil, 1,000 g active ingredient per hectare, 21st day after application
In short: as §3

[10] = tested on: green foxtail (Setaria viridis (L.) P. Beauv.); test: as above; conditions: soil surface spray, upland field soil, 1,000 g active ingredient per hectare, 21st day after application
In short: as §3

[11] = tested on: velvetleaf (Abutilon theophrasti medicus); test: as above; conditions: soil surface spray, upland field soil, 1,000 g active ingredient per hectare, 21st day after application
In short: as §3

Compound	herbicidal effect, Slender Amaranth [1]	herbicidal effect, Barnyardgrass [2]	herbicidal effect, Green Foxtail [3]	herbicidal effect, Velvetleaf [4]	herbicidal effect, Echinochloa oryzicola Vasing [5]	herbicidal effect, Monochoria vaginalis (Burm. f.) C. Presl [6]	herbicidal effect, Scirpus juncoides Roxb. [7]	herbicidal effect (index), Slender Amaranth [8]	herbicidal effect (index), Barnyardgrass [9]	herbicidal effect (index), Green Foxtail [10]	herbicidal effect (index), Velvetleaf [11]	herbicidal effect (index), Slender Amaranth [1]	herbicidal effect (index), Barnyardgrass [2]	herbicidal effect (index), Green Foxtail [3]	herbicidal effect (index), Velvetleaf [4]
C=CCn1c(C(F)(F)F)ccc(C(=O)c2cnn(C)c2O)c1=O [IV-11]	5 (90% or more of herbicidal effect and crop phytotoxicity)	5 (90% or more of herbicidal effect and crop phytotoxicity)	5 (90% or more of herbicidal effect and crop phytotoxicity)	5 (90% or more of herbicidal effect and crop phytotoxicity)	5 (90% or more of herbicidal effect and crop phytotoxicity)	5 (90% or more of herbicidal effect and crop phytotoxicity)	5 (90% or more of herbicidal effect and crop phytotoxicity)	5 (90% or more of herbicidal effect and crop phytotoxicity)	5 (90% or more of herbicidal effect and crop phytotoxicity)	4 (70 to less than 90% of herbicidal effect and crop phytotoxicity)	5 (90% or more of herbicidal effect and crop phytotoxicity)				
CCCS(=O)(=O)Oc1c(C(=O)c2ccc(C(F)(F)F)n(C(C)COC)c2=O)cnn1C (stereo not shown) [IV-37]	5 (90% or more of herbicidal effect and crop phytotoxicity)	5 (90% or more of herbicidal effect and crop phytotoxicity)	3 (50 to less than 70% of herbicidal effect and crop phytotoxicity)	5 (90% or more of herbicidal effect and crop phytotoxicity)	5 (90% or more of herbicidal effect and crop phytotoxicity)	5 (90% or more of herbicidal effect and crop phytotoxicity)	5 (90% or more of herbicidal effect and crop phytotoxicity)	5 (90% or more of herbicidal effect and crop phytotoxicity)	5 (90% or more of herbicidal effect and crop phytotoxicity)	5 (90% or more of herbicidal effect and crop phytotoxicity)	5 (90% or more of herbicidal effect and crop phytotoxicity)				
O=C1CCCC(O)=C1C(=O)c1ccc(C(F)(F)F)n(-c2ccccc2)c1=O [I-72, 2-[1,2-dihydro-2-oxo-1-phenyl-6-(trifluoromethyl)pyridine-3-carbonyl]-3-hydroxy-2-cyclohexen-1-one]					5 (90% or more of herbicidal effect and crop phytotoxicity)	5 (90% or more of herbicidal effect and crop phytotoxicity)	5 (90% or more of herbicidal effect and crop phytotoxicity)	5 (90% or more of herbicidal effect and crop phytotoxicity)	5 (90% or more of herbicidal effect and crop phytotoxicity)	5 (90% or more of herbicidal effect and crop phytotoxicity)	5 (90% or more of herbicidal effect and crop phytotoxicity)	5 (90% or more of herbicidal effect and crop phytotoxicity)	5 (90% or more of herbicidal effect and crop phytotoxicity)	5 (90% or more of herbicidal effect and crop phytotoxicity)	5 (90% or more of herbicidal effect and crop phytotoxicity)
CCCS(=O)(=O)Oc1c(C(=O)c2ccc(C(F)(F)F)n(-c3ccc4c(c3)OCO4)c2=O)cnn1CC [IV-99]	5 (90% or more of herbicidal effect and crop phytotoxicity)	5 (90% or more of herbicidal effect and crop phytotoxicity)	5 (90% or more of herbicidal effect and crop phytotoxicity)	5 (90% or more of herbicidal effect and crop phytotoxicity)	5 (90% or more of herbicidal effect and crop phytotoxicity)	5 (90% or more of herbicidal effect and crop phytotoxicity)	5 (90% or more of herbicidal effect and crop phytotoxicity)	4 (70 to less than 90% of herbicidal effect and crop phytotoxicity)	5 (90% or more of herbicidal effect and crop phytotoxicity)	3 (50 to less than 70% of herbicidal effect and crop phytotoxicity)	4 (70 to less than 90% of herbicidal effect and crop phytotoxicity)				
CCCS(=O)(=O)Oc1c(C(=O)c2ccc(C(F)(F)F)n(C)c2=O)cnn1C [IV-196]	5 (90% or more of herbicidal effect and crop phytotoxicity)	4 (70 to less than 90% of herbicidal effect and crop phytotoxicity)	3 (50 to less than 70% of herbicidal effect and crop phytotoxicity)	5 (90% or more of herbicidal effect and crop phytotoxicity)	5 (90% or more of herbicidal effect and crop phytotoxicity)	5 (90% or more of herbicidal effect and crop phytotoxicity)	5 (90% or more of herbicidal effect and crop phytotoxicity)	5 (90% or more of herbicidal effect and crop phytotoxicity)	5 (90% or more of herbicidal effect and crop phytotoxicity)	4 (70 to less than 90% of herbicidal effect and crop phytotoxicity)	5 (90% or more of herbicidal effect and crop phytotoxicity)				
O=C1CCCC(O)=C1C(=O)c1ccc(C(F)(F)F)n(-c2ccc(Cl)cc2)c1=O [I-75]					5 (90% or more of herbicidal effect and crop phytotoxicity)	5 (90% or more of herbicidal effect and crop phytotoxicity)	5 (90% or more of herbicidal effect and crop phytotoxicity)	5 (90% or more of herbicidal effect and crop phytotoxicity)	5 (90% or more of herbicidal effect and crop phytotoxicity)	5 (90% or more of herbicidal effect and crop phytotoxicity)	5 (90% or more of herbicidal effect and crop phytotoxicity)	5 (90% or more of herbicidal effect and crop phytotoxicity)	5 (90% or more of herbicidal effect and crop phytotoxicity)	5 (90% or more of herbicidal effect and crop phytotoxicity)	5 (90% or more of herbicidal effect and crop phytotoxicity)
O=C1CCCC(O)=C1C(=O)c1ccc(C(F)(F)F)n(-c2cc(F)cc(F)c2)c1=O [I-106]					5 (90% or more of herbicidal effect and crop phytotoxicity)	5 (90% or more of herbicidal effect and crop phytotoxicity)	5 (90% or more of herbicidal effect and crop phytotoxicity)	5 (90% or more of herbicidal effect and crop phytotoxicity)	5 (90% or more of herbicidal effect and crop phytotoxicity)	5 (90% or more of herbicidal effect and crop phytotoxicity)	5 (90% or more of herbicidal effect and crop phytotoxicity)	5 (90% or more of herbicidal effect and crop phytotoxicity)	5 (90% or more of herbicidal effect and crop phytotoxicity)	5 (90% or more of herbicidal effect and crop phytotoxicity)	5 (90% or more of herbicidal effect and crop phytotoxicity)
O=C1CCCC(O)=C1C(=O)c1ccc(C(F)(F)F)n(CSC2CC2)c1=O [I-52]					5 (90% or more of herbicidal effect and crop phytotoxicity)	5 (90% or more of herbicidal effect and crop phytotoxicity)	5 (90% or more of herbicidal effect and crop phytotoxicity)	5 (90% or more of herbicidal effect and crop phytotoxicity)	5 (90% or more of herbicidal effect and crop phytotoxicity)	5 (90% or more of herbicidal effect and crop phytotoxicity)	5 (90% or more of herbicidal effect and crop phytotoxicity)	5 (90% or more of herbicidal effect and crop phytotoxicity)	5 (90% or more of herbicidal effect and crop phytotoxicity)	5 (90% or more of herbicidal effect and crop phytotoxicity)	5 (90% or more of herbicidal effect and crop phytotoxicity)
